Publication doi:10.1101/2021.06.21.449268v1 (biorxiv, 2021)
Read-outs that look alike come from different tables or passages of the source.

How the values were obtained:
Pf20S β5 [1] = target: T1, Pf20S β5 (Plasmodium falciparum, UniProt Q8IJT1); test: fluorogenic peptidase assay; type: biochemical
T1 sequence (Q8IJT1 61-271): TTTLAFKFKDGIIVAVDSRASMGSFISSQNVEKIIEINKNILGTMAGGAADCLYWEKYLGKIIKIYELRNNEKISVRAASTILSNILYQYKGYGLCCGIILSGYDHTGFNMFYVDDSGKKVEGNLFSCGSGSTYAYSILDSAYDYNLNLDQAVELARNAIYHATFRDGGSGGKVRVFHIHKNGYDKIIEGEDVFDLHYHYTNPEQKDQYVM
T1 sequence (A0A5K1K7U1 29-240 partner): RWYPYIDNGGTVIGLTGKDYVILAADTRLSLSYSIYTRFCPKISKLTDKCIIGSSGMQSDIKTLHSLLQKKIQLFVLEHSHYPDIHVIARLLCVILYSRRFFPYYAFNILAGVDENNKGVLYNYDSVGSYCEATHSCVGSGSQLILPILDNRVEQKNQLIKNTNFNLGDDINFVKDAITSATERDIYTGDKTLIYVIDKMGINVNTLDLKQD

human i-20S β5i [2] = target: T2, human i-20S β5i (Homo sapiens, UniProt P28062); test: fluorogenic peptidase assay; type: biochemical; conditions: 15 μM Ac-ANW-AMC; 0.4 nM i-20S; 0.02% SDS; pH 7.5; β5i active site
T2 sequence (P28062 73-276): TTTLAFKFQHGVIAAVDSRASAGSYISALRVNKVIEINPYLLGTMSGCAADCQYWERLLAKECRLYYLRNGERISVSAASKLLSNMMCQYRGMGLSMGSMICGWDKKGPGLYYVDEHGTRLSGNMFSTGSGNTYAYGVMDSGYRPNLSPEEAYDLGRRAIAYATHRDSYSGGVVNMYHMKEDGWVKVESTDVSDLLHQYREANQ
T2 sequence (P20618 29-241 partner): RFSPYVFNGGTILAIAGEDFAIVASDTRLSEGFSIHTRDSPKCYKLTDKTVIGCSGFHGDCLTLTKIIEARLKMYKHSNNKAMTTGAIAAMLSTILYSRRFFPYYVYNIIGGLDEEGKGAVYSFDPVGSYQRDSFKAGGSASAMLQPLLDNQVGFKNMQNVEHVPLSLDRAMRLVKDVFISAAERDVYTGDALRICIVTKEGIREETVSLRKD

human c-20S β5c [3] = target: T3, human c-20S β5c (Homo sapiens, UniProt P28074); test: fluorogenic peptidase assay; type: biochemical; conditions: 25 μM suc-LLVY-AMC; 0.2 nM c-20S; 0.02% SDS; pH 7.5; β5c active site
T3 sequence (P28074 60-263): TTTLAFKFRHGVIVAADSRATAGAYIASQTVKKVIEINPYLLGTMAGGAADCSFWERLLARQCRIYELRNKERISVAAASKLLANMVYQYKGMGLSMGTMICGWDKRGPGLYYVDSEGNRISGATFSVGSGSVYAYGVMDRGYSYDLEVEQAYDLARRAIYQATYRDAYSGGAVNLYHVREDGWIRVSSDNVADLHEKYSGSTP
T3 sequence (P20618 29-241 partner): T2 sequence (P20618 29-241 partner)

human i-20S β5i [4] = target: T2, human i-20S β5i; conditions: read-out: IC50 (nM) i-20S; inhibitor
Pf20S β5 [5] = target: T1, Pf20S β5; test: biochemical
human c-20S β5c [6] = target: T3, human c-20S β5c; conditions: read-out: IC50 (nM) c-20S; inhibitor
[7] = test system: Plasmodium falciparum Pf3D7; test: microbe, parasite or virus in culture; set-up: species or system P. falciparum 3D7 in human red blood cells; conditions: Erythrocyte, read-out: EC50 (nM) Pf3D7

SMILES | IC50 (Pf20S β5 [1]) | IC50 (human i-20S β5i [2]) | IC50 (human c-20S β5c [3]) | IC50 (human i-20S β5i [4]) | IC50 (Pf20S β5 [5]) | IC50 (human c-20S β5c [6]) | EC50 [7]
C[C@H]1[C@@H](CC(=O)N[C@@H](CC(=O)NC(C)(C)C)C(=O)NCCNC(=O)c2cc(-c3ccccc3F)ccc2F)O[C@@H]2O[C@@]3(C)CC[C@H]4[C@H](C)CC[C@@H]1[C@@]24OO3 [ATZ1] | 0.0632 ± 0.011 µM | 0.65 ± 0.094 µM | 3.6 µM | – | – | – | –
C[C@H]1[C@@H](CC(=O)NCC(=O)N[C@@H](CC(=O)NC(C)(C)C)C(=O)NCCNC(=O)c2cc(-c3ccccc3F)ccc2F)O[C@@H]2O[C@@]3(C)CC[C@H]4[C@H](C)CC[C@@H]1[C@@]24OO3 [ATZ2] | – | 0.073 ± 0.019 µM | 0.21 ± 0.04 µM | – | – | – | –
C[C@H]1[C@@H](CC(=O)NCCC(=O)N[C@@H](CC(=O)NC(C)(C)C)C(=O)NCCNC(=O)c2cc(-c3ccccc3F)ccc2F)O[C@@H]2O[C@@]3(C)CC[C@H]4[C@H](C)CC[C@@H]1[C@@]24OO3 [ATZ3] | 0.0024 ± 0.0004 µM | 0.26 ± 0.051 µM | – | – | – | – | –
C[C@H]1[C@@H](CC(=O)NCCCC(=O)N[C@@H](CC(=O)NC(C)(C)C)C(=O)NCCNC(=O)c2cc(-c3ccccc3F)ccc2F)O[C@@H]2O[C@@]3(C)CC[C@H]4[C@H](C)CC[C@@H]1[C@@]24OO3 [ATZ4] | – | 0.2 ± 0.057 µM | 0.89 ± 0.14 µM | – | – | – | –
C[C@H]1[C@H](OC(=O)CCC(=O)O)O[C@@H]2O[C@@]3(C)CC[C@H]4[C@H](C)CC[C@@H]1[C@@]24OO3 [Artesunate] | – | – | – | > 100000 nM | > 100 µM | > 100000 nM | 6.2 ± 4 nM
CC(C)(C)NC(=O)C[C@H](NC(=O)CCCNC(=O)OC(C)(C)C)C(=O)NCCNC(=O)c1cc(-c2ccccc2F)ccc1F [PI01] | – | 0.2 ± 0.046 µM | 2 µM | – | – | – | –
C[C@H]1[C@H](OC(=O)CCC(=O)N[C@@H](CC(=O)NC(C)(C)C)C(=O)NCCNC(=O)c2cc(-c3ccccc3)ccn2)O[C@@H]2O[C@@]3(C)CC[C@H]4[C@H](C)CC[C@@H]1[C@@]24OO3 [WZ-06, (3R,5aS,6R,8aS,9R,10S,12R,12aR)-3,6,9-trimethyldecahydro-12H-3,12-epoxy[1,2]dioxepino[4,3-i]isochromen-10-yl 4-(((S)-4-(tert-butylamino)-1,4-dioxo-1-((2-(4-phenylpicolinamido)ethyl)amino)butan-2-yl)amino)-4-oxobutanoate] | – | – | – | 1100 nM | 0.0135 ± 0.0076 µM | – | 3.6 ± 0.01 nM
C[C@H]1[C@H](OC(=O)CCC(=O)N[C@@H](CC(=O)NC(C)(C)C)C(=O)NCCNC(=O)c2cc(-c3ccccc3)ccn2)O[C@@H]2O[C@@]3(C)CC[C@H]4[C@H](C)CC[C@@H]1[C@@]24OO3 [WZ-06] | 0.006 µM | – | – | – | – | – | –
C[C@H]1[C@H](OC(=O)CCC(=O)N[C@@H](CC(=O)NC(C)(C)C)C(=O)NCCNC(=O)c2cc(-c3ccccc3F)ccc2F)O[C@@H]2O[C@@]3(C)CC[C@H]4[C@H](C)CC[C@@H]1[C@@]24OO3 [WZ-13, (3R,5aS,6R,8aS,9R,10S,12R,12aR)-3,6,9-trimethyldecahydro-12H-3,12-epoxy[1,2]dioxepino[4,3-i]isochromen-10-yl 4-(((S)-4-(tert-butylamino)-1-((2-(2',4-difluoro-[1,1'-biphenyl]-3-carboxamido)ethyl)amino)-1,4-dioxobutan-2-yl)amino)-4-oxobutanoate] | – | – | – | 158 ± 50 nM | 0.0055 ± 0.0038 µM | 440 ± 110 nM | 2.5 ± 0.7 nM
C[C@H]1[C@H](OC(=O)CCC(=O)N[C@@H](CC(=O)NC(C)(C)C)C(=O)NCCNC(=O)c2cc(-c3ccccc3F)ccc2F)O[C@@H]2O[C@@]3(C)CC[C@H]4[C@H](C)CC[C@@H]1[C@@]24OO3 [WZ-13] | 0.002 µM | – | – | – | – | – | –
CC(C)(C)NC(=O)C[C@H](NC(=O)CCC(=O)O)C(=O)NCCNC(=O)c1cc(-c2ccccc2F)ccc1F [WZ-20, (S)-4-((4-(tert-butylamino)-1-((2-(2',4-difluoro-[1,1'-biphenyl]-3-carboxamido)ethyl)amino)-1,4-dioxobutan-2-yl)amino)-4-oxobutanoic acid] | – | – | – | 3490 nM | 0.006 ± 5e-06 µM | 34300 nM | 50.8 ± 0.7 nM
